# What was measured:
# [1] = tested on: PKA; assay: PKA inhibitor H89 treatment of FG01-transfected N2aSwe cells; format: cell-based, mouse; settings: H89 2 μM, 4 hrs, FG01-transfected N2a/Swe cells
# Procedure: After 48 hr incubation, cell media were changed to Opti-MEM (Invitrogen) containing DMSO or a PKA activity inhibitor H89 (2 μM) and cells were incubated for additional 4 hrs. The cell media were used for Aβ immunoprecipitation-Western blotting and cell lysates were subjected to Western blotting for p-CREB (substrate for PKA) and p-GSK3β. As shown, inhibiting PKA activity with H89 prevented serine phosphorylation of CREB and GSK3β by FG01.
# N2aSwe cells were transfected with control vector or FG01 and then equally split. Four hours before collection, cells were treated with the GSK-3 inhibitor lithium chloride (5 mM) or sodium chloride (5 mM, as control). Alternatively, cells were treated with a PKA inhibitor H89 at 10 μM or with DMSO for control.
# [2] = tested on: FG01; assay: FG01 RNA interference in N2aSwe cells; format: cell-based, mouse
# From the text: Cells were collected for mRNA extraction, reverse-transcription, and PCR amplification with FG01 specific primers to study the knockdown efficiency (upper panel), n=3. Alternatively, cells were lysed and cell lysates subjected to Western blotting for p-CREB, CREB, p-GSK3β, and GSK3β. Aβ in conditioned media was subjected to immunoprecipitation-Western blotting (lower panels). As shown, knockdown of FG01 coincided with a concomitant decrease in GSK3β phosphorylation (inactivation). **: p<0.01. […] Moreover, as PKA is a cAMP-dependent protein kinase, FG01 is likely having this effect through adenylyl cyclase (AC) activation of cAMP.
# The mouse FG01 siRNA used was: 5′-[…]-3′ (SEQ ID NO:20). The control siRNA was from Invitrogen. siRNA was transfected into N2a cells using Lipofectamine RNAiMAX reagent (Invitrogen), following the manufacturer's protocol. After FG01 RNA interference, total RNA was extracted from N2a cells by Trizol reagent (Invitrogen). After reverse transcription into first strand cDNA using standard conditions, samples were analyzed independently by real-time PCR using an iCycler iQ with SYBR green supermix (Bio-Rad). The FG01 primer pair used for amplification was: 5′: […] (SEQ ID NO:21) and 3′: […] (SEQ ID NO:22). A pair of β-actin primers served as controls (Zhang et al., 2007).
# [3] = downregulation of endogenous FG01 in N2aSwe cells
Compound,serine phosphorylation of CREB by FG01 [1],serine phosphorylation of GSK3β by FG01 [1],"Aβ generation [2, 3]","CREB phosphorylation [2, 3]","GSK-3 activity [2, 3]",GSK3β phosphorylation (inactivation) ([2]; knockdown of FG01 in N2a/Swe cells vs scramble siRNA)
"O=S(=O)(NCCNC/C=C/c1ccc(Br)cc1)c1cccc2cnccc12 [H89, reference compound]",prevented,prevented,–,–,–,–
"FG01 siRNA: mouse FG01 siRNA 5′-UACUGUUUGUCAUGCCACUUCUGAU-3′ (SEQ ID NO:20) (listed as RNA, chemistry not given here)",–,–,increased,dramatically reduced,increased,decrease

# Reference: patent publication US20090233993A1, “COMPOSITIONS AND METHODS FOR INHIBITING GSK3 ACTIVITY AND USES THEREOF” (Burnham Institute for Medical Research, priority 2008, published 2009)
